Experimental data reported in paper PMC4423559 (Angewandte Chemie (International ed. in English), 2015).
pKd: −log10 of the molar value.

Molecular target: T1, GTP/GDP carrier (GGC) from yeast mitochondria (Saccharomyces cerevisiae, UniProt P38988)
T1 sequence (P38988 1-300): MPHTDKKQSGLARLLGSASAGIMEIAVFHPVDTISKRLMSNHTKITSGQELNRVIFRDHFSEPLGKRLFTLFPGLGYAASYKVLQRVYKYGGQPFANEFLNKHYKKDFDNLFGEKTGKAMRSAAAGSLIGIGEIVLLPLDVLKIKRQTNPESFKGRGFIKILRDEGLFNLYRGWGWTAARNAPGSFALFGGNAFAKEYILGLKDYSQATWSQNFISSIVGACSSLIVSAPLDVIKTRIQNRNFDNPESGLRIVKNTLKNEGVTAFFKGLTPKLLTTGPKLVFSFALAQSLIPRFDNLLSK
Assay: NMR chemical shift perturbation titration, 3D TROSY HNCO
Assay type: binding

Row | pKd | SMILES
1 | 2.18 | Nc1nc2c(ncn2[C@@H]2O[C@H](COP(=O)(O)OP(=O)(O)OP(=O)(O)O)[C@@H](O)[C@H]2O)c(=O)[nH]1 [GTP]
2 | 1.64 | Nc1nc2c(ncn2[C@@H]2O[C@H](COP(=O)(O)OP(=O)(O)O)[C@@H](O)[C@H]2O)c(=O)[nH]1 [GDP]
